# Tests used:
# [1] = system: definitive endoderm cells derived from human pluripotent stem cells (hES line SA121); assay: Differentiation of definitive endoderm to pancreatic endoderm, gene expression analysis (Nanostring) on PE10; type: cell-based; conditions: treatment on PE2-3, vs standard protocol
# Protocol: (§1) Human embryonic stem (hES) cells line SA121 (Cellectis) are expanded in DEF-CS culture medium (Takara BIO Europe) in fibronectin (Sigma) coated culture flasks (Corning) with 30 ng/ml bFGF (Peprotech) and 10 ng/ml noggin (Peprotech). Cells are single cell passaged with 10 μM Rock inhibitor Y-27632 (Sigma #Y0503) and seeded in shaker flasks or bioreactors (DASBOX, DASGIP, Eppendorf) at a density of 0.5-1 mio/ml and allowed to form clusters under constant stirring conditions.
# (§2) After 1-3 days in DEF-CS medium with daily medium change, the clusters are differentiated to DE as described in WO2012/175633 (which is incorporated herein by reference in its entirety). The cell clusters are washed once in RPM11640 (Gibco #61870) and treated with 2-7 μM CHIR99021 (Axon #1386) in RPM11640. After 24 hours the cells were washed with RPM11640 and treated with 25-100 ng/ml Activin A (Peprotech #120-14E) and 2% B27 (Invitrogen #17504-044) in RPM11640 for 3 days with medium change every 24 or 48 hours. Cells are maintained at 37° C. and 5% CO2 in a humidified shaker incubator (Infors) during the differentiation to DE, or in a bioreactor system (DASBOX, DASGIP, Eppendorf).
# (§3) Medium was changed daily or every other day. At the end of PE differentiation clusters were analysed by flow cytometry or gene expression analysis (Nanostring). 10 μM AGN193109 (Tocris 5758) was added to the LDN stage of PE differentiation, whereas the remaining part of the protocol was unchanged.
# [2] = system: differentiated cells at the beta cell stage; assay: Transplantation of differentiated cells at the beta cell stage, immunohistochemistry and quantitative image analysis; type: in vivo; conditions: 8 weeks after transplantation
# RARβ [3] = molecular target: T1, RARβ (Homo sapiens, UniProt P10826); conditions: cited from earlier work
# T1 sequence (P10826 1-455): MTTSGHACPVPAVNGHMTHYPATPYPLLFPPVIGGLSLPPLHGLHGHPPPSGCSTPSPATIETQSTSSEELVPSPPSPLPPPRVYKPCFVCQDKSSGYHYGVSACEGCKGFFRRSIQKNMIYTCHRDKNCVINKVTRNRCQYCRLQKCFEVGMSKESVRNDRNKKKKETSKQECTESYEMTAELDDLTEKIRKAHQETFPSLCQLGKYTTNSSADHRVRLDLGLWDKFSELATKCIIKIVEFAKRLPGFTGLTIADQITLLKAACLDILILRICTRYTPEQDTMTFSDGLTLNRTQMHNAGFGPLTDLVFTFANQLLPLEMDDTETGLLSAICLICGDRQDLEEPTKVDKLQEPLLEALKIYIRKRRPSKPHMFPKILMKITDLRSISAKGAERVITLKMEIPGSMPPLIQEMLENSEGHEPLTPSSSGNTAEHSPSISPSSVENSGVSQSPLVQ
# [4] = system: human ES cell or human iPS cell derived PE clusters; assay: Further differentiation of PE clusters to beta cell like cells, flow cytometry on Cpep/Nkx6.1 and glucagon; type: cell-based; conditions: for Cpep/Nkx6.1 double positive: extended in vitro culture
# Description: The human ES cell or human iPS cell derived PE clusters are washed and further differentiated to endocrine progenitors (EP) and beta cell like cells (BC), using protocols for endocrine and beta cell induction, as described in WO2015/028614, WO2017/144695 and WO/2019/048690, which are all incorporated herein by reference in their entirety.
# At the end of BC differentiation clusters were sampled, dissociated to single cells with TrypLE-Select (Gibco 12563-011), fixed in 10% formalin, stained with Cpep/Nkx6.1 and glucagon and analyzed by flow cytometry.
# [5] = system: definitive endoderm cells derived from human pluripotent stem cells (hES line SA121); assay: Differentiation of definitive endoderm to pancreatic endoderm, flow cytometry (FACS) at PE stage; type: cell-based; conditions: PE10
# RARγ [6] = molecular target: T2, RARγ (Homo sapiens, UniProt P13631); conditions: RARγ transfected CV-1 cells; equal molar AGN 193109 against ATRA; cited from earlier work
# T2 sequence (P13631 1-454): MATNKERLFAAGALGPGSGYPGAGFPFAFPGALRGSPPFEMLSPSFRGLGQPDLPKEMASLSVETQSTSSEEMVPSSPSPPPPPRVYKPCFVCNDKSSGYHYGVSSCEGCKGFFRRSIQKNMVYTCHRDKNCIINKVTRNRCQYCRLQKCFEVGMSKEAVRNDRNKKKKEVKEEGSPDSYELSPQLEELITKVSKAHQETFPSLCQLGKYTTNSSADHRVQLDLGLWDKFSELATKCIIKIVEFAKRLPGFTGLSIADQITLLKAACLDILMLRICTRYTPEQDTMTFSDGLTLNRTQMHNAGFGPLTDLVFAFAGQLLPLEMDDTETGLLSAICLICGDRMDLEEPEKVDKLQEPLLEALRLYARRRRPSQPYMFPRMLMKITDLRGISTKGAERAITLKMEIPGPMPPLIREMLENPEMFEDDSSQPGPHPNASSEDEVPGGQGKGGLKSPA
# RARα [7] = molecular target: T3, RARα (Homo sapiens, UniProt P10276); conditions: RARα transfected CV-1 cells; equal molar AGN 193109 against ATRA; cited from earlier work
# T3 sequence (P10276 1-462): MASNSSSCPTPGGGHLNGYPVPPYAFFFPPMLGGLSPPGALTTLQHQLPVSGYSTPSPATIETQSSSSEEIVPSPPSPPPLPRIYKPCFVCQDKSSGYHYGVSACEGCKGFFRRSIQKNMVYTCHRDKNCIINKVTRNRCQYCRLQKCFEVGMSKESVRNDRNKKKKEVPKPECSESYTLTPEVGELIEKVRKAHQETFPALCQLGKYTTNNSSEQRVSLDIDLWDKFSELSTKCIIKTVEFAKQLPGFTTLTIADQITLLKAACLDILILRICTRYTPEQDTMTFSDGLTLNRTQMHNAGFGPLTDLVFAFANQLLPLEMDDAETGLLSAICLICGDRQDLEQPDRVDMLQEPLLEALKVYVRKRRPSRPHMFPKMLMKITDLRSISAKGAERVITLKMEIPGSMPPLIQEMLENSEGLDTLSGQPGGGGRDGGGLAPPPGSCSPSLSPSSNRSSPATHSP
# RARβ [8] = molecular target: T1, RARβ; conditions: RARβ transfected CV-1 cells; equal molar AGN 193109 against ATRA; cited from earlier work
# [9] = system: definitive endoderm cells derived from human pluripotent stem cells (hES line SA121); assay: Differentiation of definitive endoderm to pancreatic endoderm, flow cytometry (FACS) at PE stage; type: cell-based
# Protocol: as §1, §2, §3
# RARα [10] = molecular target: T3, RARα; conditions: cited from earlier work
# RARγ [11] = molecular target: T2, RARγ; conditions: cited from earlier work
# [12] = treatment on PE2-3, PE10, standard protocol 52%, FIG. 4
molecule,measurement,setting,value
Cc1ccc(C2=CCC(C)(C)c3ccc(C#Cc4ccc(C(=O)O)cc4)cc32)cc1 [AGN193109],CPA1 expression,[1],increase
same,DLK1 expression,[1],increase
same,NeuroD expression,[1],lower expression
same,Ngn3 expression,[1],lower expression
same,PTF1A expression,[1],increase
same,beta to alpha cell ratio (fraction of insulin positive cells relative to glucagon positive cells),[2],higher
same,Kd,RARβ [3],2 nM
same,Cpep/Nkx6.1 double positive beta like cells,"[4]; AGN193109 in LDN stage (PE2-3), BC6-9, standard around 35%",around 50%
same,Glucagon positive cells,"[4]; AGN193109 in LDN stage, BC stage, FIG. 7B",not accompanied by an increase
same,Cpep/Nkx6.1 double positive,"[4]; BC day 6, standard protocol 53%",59%
same,Cpep/Nkx6.1 double positive,"[4]; BC day 13, standard protocol 27%",57%
same,Pdx1-only positive cells with increasing concentrations,"[5]; 1, 3 and 10 μM on PE2-3, FIG. 5A",decrease
same,effect of increasing the concentration from 10 μM to 20 μM on PE induction,"[5]; PE2-3, FIG. 5B",no additional effect
same,dose dependence of effect on Pdx1/Nkx6.1 double positive cells,[5]; range from 0.5 μM to 20 μM on PE2-3,dose-responsive
same,antagonism of ATRA-induced transcription,RARγ [6],100%
same,antagonism of ATRA-induced transcription,RARα [7],85%
same,antagonism of ATRA-induced transcription,RARβ [8],62%
same,Pdx1/Nkx6.1 double positive,"[9]; 10 μM for last 2 days of LDN stage (PE2-3), PE10, standard condition around 40%, FIGS. 1A,B",at least 70%
same,Pdx1/Nkx6.1 double negative cells,"[9]; 10 μM on PE2-3, PE10",less than 10%
same,effect on PE induction (Pdx1/Nkx6.1 double positive) of extending addition from 2 to 4 days in the LDN stage,"[9]; 10 μM, PE10, FIG. 6A",without any negative effect
same,Pdx1/Nkx6.1 double positive,"[9]; 1 L bioreactors (DASgip, Eppendorf), 10 μM on PE2-3, PE10, standard protocol 58.4%, not run in parallel",82.2%
same,DLK1 expressing pancreatic endoderm (flow cytometry),"[9]; added on PE2-3, PE11, standard 13%",31%
same,Pdx1/Nkx6.1 double positive cells,"[9]; rescue of suboptimal PE differentiation, standard 20%, PE10",75%
same,percentage of Nkx2.2 positive cells at the PE stage,"[9]; treatment on PE2-3, PE10, control 2.9%",less than 1%
same,Pdx1/Nkx6.1 double positive,[9]; [12],76.9%
same,Kd,RARα [10],2 nM
same,Kd,RARγ [11],2 nM
AM580,DLK1 expression,[1],marked down regulation
same,NeuroD expression,[1],marked increase
same,Ngn3 expression,[1],marked increase
same,Nkx6.1 expression,[1],marked down regulation
same,PTF1A expression,[1],marked down regulation
same,Pdx1/Nkx6.1 double positive,[9]; [12],~ 14%

# Reference: US12686855B2, “Generation of pancreatic endoderm from stem cell derived definitive endoderm” (ASPECT BIOSYSTEMS LTD., priority 2019, dated 2026)
